Legend:
Type in all cases: cell-based
K. pneumoniae (EN124) = experiment: MIC of K. pneumoniae strain used in the in vivo efficacy studies; conditions: Klebsiella pneumoniae
Method: (§1) Minimum inhibitory concentration (MIC) values were determined according to the Clinical Laboratory Standards Institute guidelines. Frequency of resistance was determined by plating ~5 × 10^8 bacterial cells on agar-solidified media plates containing test compound at concentrations corresponding to four times the measured solid-media MIC of the strains. Colonies were counted after 24 h, restreaked onto media containing the same concentration of compound, and the MIC remeasured against the assayed compound. Genomic DNA from isolated clones was sequenced by paired-end sequencing on an Illumina MiSeq device. Complete experimental details available in SI Appendix.
(§2) Lantmännen) and water. […]
(§3) Safety testing in mice. […] Mice were extensively observed and toxicity signs were scored after 0-2, 5, […]
(§4) Plasma sample analysis by UPLC/MS/MS. Concentrations of EBL-3599 and EBL-3647 in mouse blood plasma were measured by liquid chromatography tandem mass spectrometry (LC/MS/MS) in positive electrospray ionization (ESI+) in multi reaction monitoring (MRM) mode. […]
(§5) A sample volume of 20 μL was transferred into a plastic tube and mixed with 300μL acetonitrile/methanol mixture (3:1, v/v) to precipitate proteins. […] Bioanalysis of samples from each mouse were measured in duplicate and the results averaged. […]

E. coli (EN122) = experiment: MIC of E. coli strain used in the in vivo efficacy studies; conditions: Escherichia coli
Method: as §1, §2, §3, §4, §5

efflux-defective E. coli = experiment: Frequency of resistance, efflux-defective E. coli; conditions: not told
Method: as §1, with “Appendix. […]” for “Appendix.”
Minimum inhibitory concentration (MIC) determination. […] Appropriate inoculation suspension density was assessed using a Sensititre Nephelometer with a Sensititre 0.5 […]
Frequency of Resistance. Frequency of resistance was assessed by spread plating between […] cfu of a freshly-grown culture of the strain of interest on plates containing a concentration of compound corresponding to 4 times the MIC of the strain (as determined by agar-dilution MIC). […] The frequency of resistance was determined by dividing the number of colonies obtained on the selective plates after 24 hours of growth by the calculated total population plated. […]

Structure (SMILES)	MIC (K. pneumoniae (EN124))	MIC (E. coli (EN122))	Frequency of resistance in efflux-defective E. coli (efflux-defective E. coli)
Cc1cc(C#N)nc(N2CCN(S(=O)(=O)c3ccc(NC(=O)c4cc(CN5CC(CN)C5)ccc4N(C)S(C)(=O)=O)cc3)CC2)n1 [EBL-3647]	4 µg/mL	4 µg/mL	–
CN(c1ccccc1C(=O)Nc1ccc(S(=O)(=O)N2CCN(c3cccc(C(F)(F)F)c3)CC2)cc1)S(C)(=O)=O [JEDI-1444]	–	–	low frequency of resistance

Source: article PMC11009625, “Antibiotic class with potent in vivo activity targeting lipopolysaccharide synthesis in Gram-negative bacteria” (Proceedings of the National Academy of Sciences of the …, 2024)
